According to patent US5073539A, “Transdermal administration of zwitterionic drugs” (Ciba-Geigy Corporation, priority 1990, dated 1991):
Converted amounts (≈) assume the structure as drawn. Where a name gives a salt, the structure may show the parent alone. Read-outs that look alike come from different tables or passages of the source.

What was measured:
[1] = Permeation rate through polyurethane; assay type: physicochemical
Source text: (§1) In the examples, the solubilities of free zwitterion and enhanced solubilities of various salts thereof are reported in various degrees in the following solvents: water, ethanol, octanol, chloroform and human stratum corneum. Permeation rates are also shown for these zwitterionic compounds and enhanced fluxes of the salts thereof through materials including polyurethane. While such materials are impractical for transdermal devices for free zwitterions, these materials are practical for the transdermal delivery of salts of zwitterions. The solubility in water is given as a model of polar solvents, while the octanol and chloroform are given as models for skin lipids. The critical factor for inclusion of a salt within the invention is that relative to its non salt zwitterion parent compound, the salt form of the invention has a greater solubility in both polar and lipid skin models.
(§2) Average of values measured in triplicate.

[2] = Solubility in ethanol at 25 deg. C.; assay type: physicochemical; settings: average of triplicate
[3] = Solubility in chloroform at 25 deg. C. (model of skin lipids); assay type: physicochemical
Source text: as §1, §2

[4] = Solubility in water at 25 deg. C.; assay type: physicochemical; settings: average of triplicate
Source text: (§3) The solubility in water is given as a model of polar solvents, while the octanol and chloroform are given as models for skin lipids.

[5] = Solubility in human stratum corneum; assay type: physicochemical; settings: average of triplicate
Source text: as §1, §2

[6] = Permeation rate through human epidermis; assay type: in vitro ADME
Source text: as §1, §2

[7] = Solubility in octanol at 25 deg. C. (model of skin lipids); assay type: physicochemical; settings: average of triplicate
Source text: as §3

[8] = at 25 deg. C., average of triplicate

NCC(CC(=O)O)c1ccc(Cl)cc1 (stereo not drawn) [Bac. lithium salt]
Permeation rate through polyurethane ([1]; average of triplicate): 128.3 ug/cm 2/hr
R.E. (relative enhancement) of permeation rate through polyurethane ([1]; relative to free zwitterion): 24.12
Solubility in ethanol [2]: 57.8373 mg/mL
Solubility in chloroform [3, 8]: 6.93 µg/mL
Solubility in water [4]: 21.7191 mg/mL

NCC(CC(=O)O)c1ccc(Cl)cc1 (stereo not drawn) [Bac. hydrofluoride]
Permeation rate through polyurethane ([1]; average of triplicate): 3.45 ug/cm 2/hr
R.E. (relative enhancement) of permeation rate through polyurethane ([1]; relative to free zwitterion): 0.65
Solubility in human stratum corneum [5]: 0.02215 mg/mL (≈ 0.104 mM)
Solubility in ethanol [2]: 1.79088 mg/mL (≈ 8.38 mM)
Solubility in chloroform [3, 8]: 0.104 µg/mL (≈ 0.000487 mM)
Solubility in water [4]: 1.3962 mg/mL (≈ 6.53 mM)

NCC(CC(=O)O)c1ccc(Cl)cc1 (stereo not drawn) [Bac. fumarate]
Permeation rate through polyurethane ([1]; average of triplicate): 11.4 ug/cm 2/hr
R.E. (relative enhancement) of permeation rate through polyurethane ([1]; relative to free zwitterion): 2.14
Solubility in chloroform [3, 8]: 0.627 µg/mL
Solubility in water [4]: 1.1875 mg/mL

N[C@@H](Cc1ccccc1)C(=O)O [Phenylalanine (Phe), Phenylalanine, reference compound]
Permeation rate through polyurethane ([1]; average of triplicate): 1.92 ug/cm 2/hr
R.E. (relative enhancement) of permeation rate through polyurethane ([1]; relative to free zwitterion): 1.00
solubility ([2]; ethanol, organic solvent or mixture): 0.234 mg/mL (≈ 1.42 mM)
Permeation rate through human epidermis ([6]; average of triplicate): 1.02 ug/cm 2/hr
R.E. (relative enhancement) of permeation rate through human epidermis ([6]; relative to free zwitterion): 1.00
solubility ([7]; octanol, organic solvent or mixture): 0.0123 mg/mL (≈ 0.0745 mM)
solubility ([3]; chloroform, organic solvent or mixture, at 25 deg. C., average of triplicate): 0.00021 mg/mL (≈ 0.00127 mM)
solubility ([4]; water): 25.3 mg/mL (≈ 153 mM)

NCCCC[C@H](N[C@H]1CCc2ccccc2N(CC(=O)O)C1=O)C(=O)O [CGS 16617. dihydrobromide]
Permeation rate through polyurethane [1]: 65.31 ug/cm 2/hr
R.E. (relative enhancement) of permeation rate through polyurethane [1]: 121.39
Solubility in ethanol [2]: 45.0269 mg/mL
Solubility in octanol [7]: 0.5067 mg/mL
Solubility in water [4]: 1423 mg/mL

NCC(CC(=O)O)c1ccc(Cl)cc1 (stereo not drawn) [Baclofen (Bac), Baclofen, reference compound]
Permeation rate through polyurethane ([1]; average of triplicate): 5.32 ug/cm 2/hr
R.E. (relative enhancement) of permeation rate through polyurethane ([1]; relative to free zwitterion): 1.00
Solubility in human stratum corneum [5]: 0.00311 mg/mL (≈ 0.0146 mM)
Solubility in ethanol [2]: 1.1441 mg/mL (≈ 5.35 mM)
Permeation rate through human epidermis ([6]; average of triplicate): 0.118 ug/cm 2/hr
R.E. (relative enhancement) of permeation rate through human epidermis ([6]; relative to free zwitterion): 1.00
Solubility in octanol [7]: 0.0222 mg/mL (≈ 0.104 mM)
Solubility in chloroform [3, 8]: 0.22 µg/mL (≈ 0.00103 mM)
Solubility in water [4]: 6.8287 mg/mL (≈ 32 mM)

O=C(O)CN1C(=O)[C@@H](N[C@@H](CCc2ccccc2)C(=O)O)CCc2ccccc21 [CGS 14831. dilithium salt]
Permeation rate through polyurethane [1]: 47.76 ug/cm 2/hr
R.E. (relative enhancement) of permeation rate through polyurethane [1]: 153.57
Solubility in ethanol [2]: 27.97561 mg/mL
Permeation rate through human epidermis [6]: 8.95 ug/cm 2/hr
R.E. (relative enhancement) of permeation rate through human epidermis [6]: 63.52

NCC(CC(=O)O)c1ccc(Cl)cc1 (stereo not drawn) [Bac. pentane sulfonate]
Permeation rate through polyurethane ([1]; average of triplicate): 220.2 ug/cm 2/hr
R.E. (relative enhancement) of permeation rate through polyurethane ([1]; relative to free zwitterion): 41.30
Solubility in ethanol [2]: 61.6503 mg/mL
Solubility in octanol [7]: 0.5764 mg/mL
Solubility in chloroform [3, 8]: 37.4 µg/mL

NCC(CC(=O)O)c1ccc(Cl)cc1 (stereo not drawn) [Bac. potassium salt]
Permeation rate through polyurethane ([1]; average of triplicate): 587.8 ug/cm 2/hr
R.E. (relative enhancement) of permeation rate through polyurethane ([1]; relative to free zwitterion): 110.49

NC(Cc1ccccc1)C(=O)O (stereo not drawn) [Phe. hydrochloride]
Permeation rate through polyurethane ([1]; average of triplicate): 1516.23 ug/cm 2/hr
R.E. (relative enhancement) of permeation rate through polyurethane ([1]; relative to free zwitterion): 789.70
Solubility in ethanol [2]: 107.1459 mg/mL
Permeation rate through human epidermis ([6]; average of triplicate): 77.53 ug/cm 2/hr
R.E. (relative enhancement) of permeation rate through human epidermis ([6]; relative to free zwitterion): 76.01
Solubility in octanol [7]: 40.2318 mg/mL
Solubility in chloroform [3, 8]: 58.26 µg/mL
Solubility in water [4]: 959.6908 mg/mL

NCC(CC(=O)O)c1ccc(Cl)cc1 (stereo not drawn) [Bac. maleate]
Permeation rate through polyurethane ([1]; average of triplicate): 19.13 ug/cm 2/hr
R.E. (relative enhancement) of permeation rate through polyurethane ([1]; relative to free zwitterion): 3.59
Solubility in chloroform [3, 8]: 0.026 µg/mL
Solubility in water [4]: 1.2923 mg/mL

O=C(O)CN1C(=O)[C@@H](N[C@@H](CCc2ccccc2)C(=O)O)CCc2ccccc21 [CGS 14831. dipotassium salt]
Permeation rate through polyurethane [1]: 75.01 ug/cm 2/hr
R.E. (relative enhancement) of permeation rate through polyurethane [1]: 241.19
Solubility in ethanol [2]: 34.19351 mg/mL
Permeation rate through human epidermis [6]: 20.56 ug/cm 2/hr
R.E. (relative enhancement) of permeation rate through human epidermis [6]: 145.92

O=C(O)CN1C(=O)[C@@H](N[C@@H](CCc2ccccc2)C(=O)O)CCc2ccccc21 [Benazeprilat (CGS14831), Benazeprilat, reference compound]
Permeation rate through polyurethane [1]: 0.311 ug/cm 2/hr
R.E. (relative enhancement) of permeation rate through polyurethane [1]: 1.00
Solubility in ethanol [2]: 0.12089 mg/mL (≈ 0.305 mM)
Permeation rate through human epidermis [6]: 0.1409 ug/cm 2/hr
R.E. (relative enhancement) of permeation rate through human epidermis [6]: 1.00

NCC(CC(=O)O)c1ccc(Cl)cc1 (stereo not drawn) [Bac. methane sulfonate, baclofen methane sulfonate]
Permeation rate through polyurethane ([1]; average of triplicate): 287.9 ug/cm 2/hr
R.E. (relative enhancement) of permeation rate through polyurethane ([1]; relative to free zwitterion): 54.12
Solubility in ethanol [2]: 170.84 mg/mL
Solubility in chloroform [3, 8]: 0.087 µg/mL
solubility in chloroform versus free zwitterion ([3]; in words, exception to salt being more soluble): one exception
Solubility in water [4]: 8.8269 mg/mL

NCCCC[C@H](N[C@H]1CCc2ccccc2N(CC(=O)O)C1=O)C(=O)O [CGS 16617. monomaleate]
Permeation rate through polyurethane [1]: 3.47 ug/cm 2/hr
R.E. (relative enhancement) of permeation rate through polyurethane [1]: 6.45
Solubility in ethanol [2]: 0.24882 mg/mL
Solubility in octanol [7]: 0.01396 mg/mL
Solubility in water [4]: 623.9 mg/mL

NCC(CC(=O)O)c1ccc(Cl)cc1 (stereo not drawn) [Bac. propane sulfonate]
Permeation rate through polyurethane ([1]; average of triplicate): 233.9 ug/cm 2/hr
R.E. (relative enhancement) of permeation rate through polyurethane ([1]; relative to free zwitterion): 43.97
Solubility in ethanol [2]: 107.317 mg/mL
Solubility in chloroform [3, 8]: 8.74 µg/mL
Solubility in water [4]: 24.4257 mg/mL

NCC(CC(=O)O)c1ccc(Cl)cc1 (stereo not drawn) [Bac. ethane sulfonate]
Permeation rate through polyurethane ([1]; average of triplicate): 211.9 ug/cm 2/hr
R.E. (relative enhancement) of permeation rate through polyurethane ([1]; relative to free zwitterion): 39.83
Solubility in ethanol [2]: 237.181 mg/mL
Solubility in chloroform [3, 8]: 11.17 µg/mL
Solubility in water [4]: 38.8898 mg/mL

NCC(CC(=O)O)c1ccc(Cl)cc1 (stereo not drawn) [Bac. hydrochloride]
Permeation rate through polyurethane ([1]; average of triplicate): 273.7 ug/cm 2/hr
R.E. (relative enhancement) of permeation rate through polyurethane ([1]; relative to free zwitterion): 51.45
Solubility in human stratum corneum [5]: 0.21469 mg/mL
Solubility in ethanol [2]: 37.4989 mg/mL
Solubility in octanol [7]: 0.3243 mg/mL
Solubility in chloroform [3, 8]: 5.34 µg/mL
Solubility in water [4]: 244.6225 mg/mL

NCC(CC(=O)O)c1ccc(Cl)cc1 (stereo not drawn) [Bac. sodium salt]
Permeation rate through polyurethane ([1]; average of triplicate): 605.3 ug/cm 2/hr
R.E. (relative enhancement) of permeation rate through polyurethane ([1]; relative to free zwitterion): 113.78
Solubility in ethanol [2]: 529.056 mg/mL
Solubility in chloroform [3, 8]: 3.47 µg/mL
Solubility in water [4]: 21.3797 mg/mL

NCCCC[C@H](N[C@H]1CCc2ccccc2N(CC(=O)O)C1=O)C(=O)O [CGS 16617, reference compound]
Permeation rate through polyurethane [1]: 0.538 ug/cm 2/hr
R.E. (relative enhancement) of permeation rate through polyurethane [1]: 1.00
Solubility in ethanol [2]: 0.1907 mg/mL (≈ 0.525 mM)
Solubility in octanol [7]: 0.02336 mg/mL (≈ 0.0643 mM)
Solubility in water [4]: 491.5 mg/mL (≈ 1350 mM)

NCCCC[C@H](N[C@H]1CCc2ccccc2N(CC(=O)O)C1=O)C(=O)O [CGS 16617. dihydrochloride]
Permeation rate through polyurethane [1]: 13.34 ug/cm 2/hr
R.E. (relative enhancement) of permeation rate through polyurethane [1]: 24.80
Solubility in ethanol [2]: 1.89075 mg/mL
Solubility in octanol [7]: 0.0878 mg/mL
Solubility in water [4]: 1127.8 mg/mL
